Measured values: ChEMBL document CHEMBL5236665, “Accumulation of lankamycin derivative with a branched-chain sugar from a blocked mutant of chalcose biosynthesis in Streptomyces rochei 7434AN4” (2023)

Columns and labels:
Micrococcus luteus [1] = experiment: Antimicrobial activity against Micrococcus luteus assessed as inhibition of microbial growth at 0.03 to 3.33 ug/ml; type: functional; design: scale not given: the % may be the effect or the level left; conditions: dose 0.03-3.33 µg/ml; at 0.03 to 3.33 µg/mL
Micrococcus luteus [2] = experiment: Antimicrobial activity against Micrococcus luteus assessed as inhibition of microbial growth; type: functional

| MIC (Micrococcus luteus [2]) [µg/mL] | Structure (SMILES) | Activity (Micrococcus luteus [1]) [%] |
| --- | --- | --- |
| – | CO[C@]1(C)C[C@H](O[C@H]2[C@H](C)[C@@H](O[C@@H]3O[C@H](C)C[C@](O)(C(C)=O)[C@H]3O)[C@@H](C)C[C@](C)(O)C(=O)[C@H](C)[C@@H](OC(C)=O)[C@@H](C)[C@@H]([C@@H](C)[C@H](C)O)OC(=O)[C@@H]2C)O[C@@H](C)[C@H]1OC(C)=O | 50 |
| 1 | CO[C@H]1C[C@@H](C)O[C@@H](O[C@@H]2[C@@H](C)[C@H](O[C@H]3C[C@@](C)(OC)[C@H](OC(C)=O)[C@H](C)O3)[C@@H](C)C(=O)O[C@H]([C@@H](C)[C@H](C)O)[C@H](C)[C@H](OC(C)=O)[C@@H](C)C(=O)[C@@](C)(O)C[C@@H]2C)[C@@H]1O | – |
